Here are results for 24 compounds from US8063065B2, “Azaindazole compounds as CCR1 receptor antagonists” (Boehringer Ingelheim International GmbH, priority 2008, dated 2011).

Experiment [1] deals with T1, CCR1 (Homo sapiens, UniProt P32246).
T1 sequence (P32246 1-355): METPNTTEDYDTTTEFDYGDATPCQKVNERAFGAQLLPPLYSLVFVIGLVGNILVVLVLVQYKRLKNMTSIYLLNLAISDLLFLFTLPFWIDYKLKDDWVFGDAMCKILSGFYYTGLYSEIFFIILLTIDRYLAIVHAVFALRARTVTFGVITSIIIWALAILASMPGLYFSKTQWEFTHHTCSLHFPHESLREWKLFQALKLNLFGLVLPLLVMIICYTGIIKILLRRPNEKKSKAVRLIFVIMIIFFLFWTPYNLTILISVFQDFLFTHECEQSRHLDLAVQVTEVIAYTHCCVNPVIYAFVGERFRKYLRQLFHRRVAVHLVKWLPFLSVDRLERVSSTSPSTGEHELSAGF
Nature of the experiment: Method A: calcium flux in CCR1 transfected cells (Fluo-4 NW, FLIPR TETRA), block of the CCR1/MIP-1α interaction. The experiment is classed as cell-based. The note with it: Method A: Fluo-4 NW, MIP-1 alpha at EC80. The protocol:
Compounds are assessed for the ability to block the interaction of CCR1 and MIP-1α in a functional cellular assay measuring calcium flux in CCR1 transfected cells.
Method A: Non-adherent cells purchased from Chemicon Corporation (HTS005C), stably expressing recombinant CCR1 and G-alpha-16 are grown in RPMI 1640 medium (Mediatech 10-080-CM) supplemented with 10% heat-inactivated FBS, 0.4 mg/mL Geneticin and penicillin/streptomycin. On the day of the assay, the cells are transferred to a beaker and dye-loaded in bulk using a Fluo-4 NW Calcium Assay Kit with probenecid (Invitrogen F36205) at 0.8E6 cells/mL for 1 hour at room temperature. After 1 hour, they are seeded in a 384-well tissue culture-treated plate at a density of 20,000 cells/well. Appropriately diluted test compound is added to the well to achieve a top concentration of 3,000 nM (diluted 4-fold with 10 doses total). The final concentration of DMSO is 1%. The buffer is HBSS (Invitrogen 14025) with 20 mM HEPES at pH 7.4. The cells are allowed to incubate 1 hour in the dark at room temperature. The plates are transferred to the FLIPR TETRA where MIP-1 alpha in 1% BSA is added at the EC80 final concentration. Wells+/−MIP-1 alpha containing diluted DMSO instead of compound serve as the controls. Intracellular calcium flux is recorded on the FLIPR TETRA, using excitation at 470/495 nm and emission at 515/575 nm. Data are analyzed using Activity Base software.

Experiment [2] deals with T1, CCR1. Nature of the experiment: Method B: calcium flux in CCR1 transfected cells (Calcium 4 dye, […] FDSS6000), block of the CCR1/MIP-1α interaction. The class given is cell-based. The note with it: Method B: Calcium 4 dye, MIP-1alpha at EC80. In short, it runs like this:
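Calcium flux on an FDSS6000 was triggered by MIP-1α at its EC80 in stably CCR1/G-alpha-16-expressing non-adherent cells. Before this, Calcium 4-loaded cells were preincubated with compound in HBSS, 20 mM HEPES pH 7.4, 1% DMSO: 30 min at 37 C plus 30 min at room temperature. Ten 4-fold doses began at 3,000 nM, with ±MIP-1α DMSO wells as controls.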

Regarding `C[C@H](CO)NS(=O)(=O)c1ccc(CNC(=O)c2cncc3c2cnn3-c2ccc(F)cc2)cc1` [1-(4-Fluorophenyl)-1H-pyrazolo[3,4-c]pyridine-4-carboxylic acid 4-((R)-2-hydroxy-1-methyl-ethylsulfamoyl)-benzylamide], the IC50 on CCR1 [1] was 2 nM.

Regarding `CC(C)NS(=O)(=O)Cc1ccc(CNC(=O)c2cncc3c2cnn3-c2ccc(F)cc2)cc1` [1-(4-Fluorophenyl)-1H-pyrazolo[3,4-c]pyridine-4-carboxylic acid 4-(isopropylsulfamoyl-methyl)-benzylamide], on CCR1 [1], the IC50 was 3 nM.

For `CS(=O)(=O)c1cccc(CNC(=O)c2cncc3c2cnn3-c2ccc(Cl)cc2)c1` [1-(4-Chlorophenyl)-1H-pyrazolo[3,4-c]pyridine-4-carboxylic acid 3-methanesulfonyl-benzylamide], the IC50 on CCR1 [1] was 7 nM.

`CC[C@H](NC(=O)c1cncc2c1cnn2-c1ccc(Cl)cc1)c1cncc(S(C)(=O)=O)c1` [1-(4-Chlorophenyl)-1H-pyrazolo[3,4-c]pyridine-4-carboxylic acid [(S)-1-(5-methanesulfonyl-pyridin-3-yl)-propyl]-amide]: the IC50 on CCR1 [1] was 0.4 nM.

As for `CCCC(NC(=O)c1cncc2c1cnn2-c1ccc(Cl)cc1)c1ccnc(Br)c1` (stereo not drawn) [1-(4-Chlorophenyl)-1H-pyrazolo[3,4-c]pyridine-4-carboxylic acid [1-(2-bromopyridin-4-yl)-butyl]-amide], the IC50 at CCR1 [1] amounted to 2 nM.

Take `C[C@H](NC(=O)c1cncc2c1cnn2-c1ccc(F)cc1)c1cncc(S(C)(=O)=O)c1` [1-(4-Fluorophenyl)-1H-pyrazolo[3,4-c]pyridine-4-carboxylic acid [(S)-1-(5-methanesulfonyl-pyridin-3-yl)-ethyl]-amide]: the IC50 at CCR1 [1] came to 3 nM.

Regarding `NC1CCN(S(=O)(=O)c2ccc(CNC(=O)c3cncc4c3cnn4-c3ccc(F)cc3)cc2)CC1` [1-(4-Fluorophenyl)-1H-pyrazolo[3,4-c]pyridine-4-carboxylic acid 4-(4-amino-piperidine-1-sulfonyl)-benzylamide], on CCR1 [1], the IC50 was 0.3 nM.

`C[C@H](NC(=O)c1cncc2c1cnn2-c1ccc(Cl)cc1)c1cncc(S(C)(=O)=O)c1` [1-(4-Chlorophenyl)-1H-pyrazolo[3,4-c]pyridine-4-carboxylic acid [(S)-1-(5-methanesulfonyl-pyridin-3-yl)-ethyl]-amide]: the IC50 at CCR1 [1] came to 4 nM.

`C=CC[C@@H](NC(=O)c1cncc2c1cnn2-c1ccc(F)cc1)c1ccnc(Br)c1` [1-(4-Fluorophenyl)-1H-pyrazolo[3,4-c]pyridine-4-carboxylic acid [(R)-1-(2-bromopyridin-4-yl)-but-3-enyl]-amide]: on CCR1 [1], the IC50 is 17 nM.

For the compound `CN(c1ccc(CNC(=O)c2cncc3c2cnn3-c2ccc(F)cc2)cn1)S(C)(=O)=O` [1-(4-Fluorophenyl)-1H-pyrazolo[3,4-c]pyridine-4-carboxylic acid [6-(methanesulfonyl-methyl-amino)-pyridin-3-ylmethyl]-amide], the IC50 on CCR1 [1] was 5 nM.

Consider `CCC[C@H](NC(=O)c1cncc2c1cnn2-c1ccc(F)cc1)c1cncc(S(C)(=O)=O)c1` [1-(4-Fluorophenyl)-1H-pyrazolo[3,4-c]pyridine-4-carboxylic acid [(S)-1-(5-methanesulfonyl-pyridin-3-yl)-butyl]-amide], for which the IC50 at CCR1 [1] was found to be 0.3 nM.

`CC[C@H](NC(=O)c1cncc2c1cnn2-c1ccc(F)cc1)c1ccnc(Cl)c1` [1-(4-Fluorophenyl)-1H-pyrazolo[3,4-c]pyridine-4-carboxylic acid [(S)-1-(2-chloropyridin-4-yl)-propyl]-amide]: at CCR1 [2], the IC50 was found to be 0.2 nM.

As to `O=C(NCc1ccc(Br)s1)c1cncc2c1cnn2-c1ccc(F)cc1` [1-(4-Fluorophenyl)-1H-pyrazolo[3,4-c]pyridine-4-carboxylic acid (5-bromo-thiophen-2-ylmethyl)-amide], the IC50 on CCR1 [2] came to 19 nM.

In the case of `CC[C@H](NC(=O)c1cncc2c1cnn2-c1ccc(F)cc1)c1cc(S(C)(=O)=O)[nH]c(=O)c1` [1-(4-Fluorophenyl)-1H-pyrazolo[3,4-c]pyridine-4-carboxylic acid [(S)-1-(6-methanesulfonyl-2-oxo-1,2-dihydropyridin-4-yl)-propyl]-amide], the IC50 on CCR1 [2] is 0.3 nM.

As for `CCC(NC(=O)c1cncc2c1cnn2-c1ccc(F)cc1)c1nc(C(=O)OC)c(C)o1` (stereo not drawn) [2-(1-{[1-(4-Fluorophenyl)-1H-pyrazolo[3,4-c]pyridine-4-carbonyl]-amino}-propyl)-5-methyl-oxazole-4-carboxylic acid methyl ester], the IC50 on CCR1 [2] is 27 nM.

As to `COc1cc(CNC(=O)c2cncc3c2cnn3-c2ccc(F)cc2)cc(S(C)(=O)=O)n1` [1-(4-Fluorophenyl)-1H-pyrazolo[3,4-c]pyridine-4-carboxylic acid (2-methanesulfonyl-6-methoxy-pyridin-4-ylmethyl)-amide], the IC50 on CCR1 [2] amounted to 1 nM.

In the case of `CCC(NC(=O)c1cncc2c1cnn2-c1ccc(F)cc1)c1nc(C(=O)NC)co1` (stereo not drawn) [1-(4-Fluorophenyl)-1H-pyrazolo[3,4-c]pyridine-4-carboxylic acid [1-(4-methylcarbamoyl-oxazol-2-yl)-propyl]-amide], the IC50 at CCR1 [2] amounted to 16 nM.

On to `CC[C@H](NC(=O)c1cncc2c1cnn2-c1ccc(F)cc1)c1ccn(S(=O)(=O)c2ccc(C)cc2)c1` [1-(4-Fluorophenyl)-1H-pyrazolo[3,4-c]pyridine-4-carboxylic acid {(S)-1-[1-(toluene-4-sulfonyl)-1H-pyrrol-3-yl]-propyl}-amide], for which the IC50 at CCR1 [2] worked out at 3 nM.

With `CS(=O)(=O)c1ncc(CNC(=O)c2cncc3c2cnn3-c2ccc(F)cc2)s1` [1-(4-Fluorophenyl)-1H-pyrazolo[3,4-c]pyridine-4-carboxylic acid (2-methanesulfonyl-thiazol-5-ylmethyl)-amide], the IC50 at CCR1 [2] worked out at 17 nM.

Regarding `CC[C@@H](NC(=O)c1cncc2c1cnn2-c1ccc(F)cc1)c1ccn(S(=O)(=O)c2ccc(C)cc2)c1` [1-(4-Fluorophenyl)-1H-pyrazolo[3,4-c]pyridine-4-carboxylic acid {(R)-1-[1-(toluene-4-sulfonyl)-1H-pyrrol-3-yl]-propyl}-amide], on CCR1 [2], the IC50 was 23 nM.

As to `CC[C@H](NC(=O)c1cncc2c1cnn2-c1ccc(F)cc1)c1cnc(S(C)(=O)=O)o1` [1-(4-Fluorophenyl)-1H-pyrazolo[3,4-c]pyridine-4-carboxylic acid [(S)-1-(2-methanesulfonyl-oxazol-5-yl)-propyl]-amide], the IC50 at CCR1 [2] came out at 3 nM.

Turning to `COC[C@H](NC(=O)c1cncc2c1cnn2-c1ccc(F)cc1)c1ccnc(Br)c1` [1-(4-Fluorophenyl)-1H-pyrazolo[3,4-c]pyridine-4-carboxylic acid [(R)-1-(2-bromopyridin-4-yl)-2-methoxy-ethyl]-amide], at CCR1 [2], the IC50 worked out at 0.5 nM.

As for `CC[C@H](NC(=O)c1cncc2c1cnn2-c1ccc(F)cc1)c1ccnc(NC)c1` [1-(4-Fluorophenyl)-1H-pyrazolo[3,4-c]pyridine-4-carboxylic acid [(S)-1-(2-methylamino-pyridin-4-yl)-propyl]-amide], the IC50 at CCR1 [2] was determined as 4 nM.

For the compound `CC[C@H](NC(=O)c1cncc2c1cnn2-c1ccc(F)cc1)c1ccnc([S@@+](C)[O-])c1` [1-(4-Fluorophenyl)-1H-pyrazolo[3,4-c]pyridine-4-carboxylic acid {(S)-1-[2-((R)-methanesulfinyl)-pyridin-4-yl]-propyl}-amide], the IC50 at CCR1 [2] was 0.6 nM.
